# Values quoted from earlier work in patent US20240293347A1, “COMPOSITION AND METHODS OF TREATMENT USING TRANSDERMAL HORMONE SUPPLEMENTATION” (Xygenyx Inc., priority 2023, published 2024).
# Assays:
# [1] = used as penetration enhancer for transdermal drugs
# [2] = in the human body
Compound,increase of drug uptake via the transdermal route (factor) [1],biological half-life [2]
CC(C)[C@@H]1CC[C@@H](C)C[C@H]1O [Menthol],≥ 10,
"CC12CCC(CC1)C(C)(C)O2 [eucalyptol, 1,8-epoxy-p-menthane]",more than 10,
HGH: hormone comprising a peptide chain that is synthesized in the pituitary gland,,10-20 minutes
